In PMC10020447, “Potent acyl-CoA synthetase 10 inhibitors kill Plasmodium falciparum by disrupting triglyceride formation” (Nature Communications, 2023):
Read-outs that look alike come from different tables or passages of the source.

Experiments:
[1] = system: T1, Plasmodium falciparum 3D7; experiment: microbe, parasite or virus in culture; parameters: species or system P. falciparum 3D7 in human erythrocytes; Asexual blood stage growth inhibition dose response of parental 3D7 parasites, EC50; settings: 3D7, Erythrocyte
T1 construct: 3D7 parental line, asexual blood stage
From the text: Fig. 1 Gene-edited PfACS10 and PfACS11 lines phenocopy parasite lines selected to become resistant to a range of antiplasmodial chemotypes. a Chemical structures of the compounds used in drug selections. b–d Dose response curves for a representative example of the parental 3D7 line (black), the selected lines (ACS11E668K_S, ACS11F387V_S, and ACS10M300I_S) and the genetically edited lines (ACS11E668K_C, ACS11F387V_C, and ACS10M300I_C) against the compound used to select for the resistant lines. At least three biological replicates were run for each strain in technical triplicates. Shown are the average ±SD and the non-linear regression curve fit for one biological assay run in triplicate. Statistical significances for EC50 are reported in Supplementary Data 1 and source data are provided as a Source Data file. Previous work by the MalDA consortium identified MMV019719 and MMV665924 as two new phenotypic hits from the chemically diverse Medicines for Malaria Venture (MMV) Malaria Box[8],[12]. […] To verify the role of these mutations in conferring resistance to these two compounds (resistance is defined here as a more than 2-fold shift in EC50 values in in vitro culture compared to the parental line), we used CRISPR/Cas9 technology to perform allelic replacements of a subset of the mutations observed (Supplementary Fig. 1 and Supplementary Table 1). Using the 3D7 parental line, we introduced the individual point mutations F387V or E668K into PfACS11 and M300I into PfACS10, yielding the gene-edited lines ACS11F387V_C, ACS11E668K_C, and ACS10M300I_C. These parasites phenocopied the increase in EC50 values seen in drug-selected compared to wildtype parasites (Fig. 1a–c and Supplementary Data 1). These findings confirm that the mutations in PfACS10 and PfACS11 identified by resistance selections with MMV019719 and MMV665924 are sufficient to reduce susceptibility to these compounds. […] MMV019719, MMV665924, and MMV897615 were freely available as part of the Medicines for Malaria Venture’s (MMV) Malaria Box. Triacsin C was purchased from Sigma-Aldrich (St. Louis, MO, ref. T4540). The 3D7 P. falciparum strain was originally obtained through MR4 as part of the BEI Resources Repository, NIAID, NIH: 3D7, MRA-102, deposited by D. J. Carucci. We also used 3D7- IG06 (a fast-growing 3D7 clone)[64] donated by Daniel Goldberg and Dd2-Polδ[23] donated by Marcus Lee. The Malawi parasites (CF04.008 10B and CF04.009 6D and 1 G, two different patient isolates that were subcloned after culture adaption) were kindly donated by Danny Milner[26]. Parasites were cultured by standard methods[65] in RPMI 1640 medium supplemented with 28 mM NaHCO3, 25 mM HEPES, 400 μM hypoxanthine, 25 μg/mL gentamicin, and 0.5% AlbuMAX II (Life Technologies, Carlsbad, CA 11021-045). The human erythrocytes were sourced ethically, and their research use was in accord with the terms of approved protocol.

[2] = system: T2, Plasmodium falciparum PolD (Dd2-Polδ); experiment: microbe, parasite or virus in culture; parameters: species or system P. falciparum Dd2-Polδ in human erythrocytes; Parasite survival dose response by flow cytometry with SYBR Green and MitoTracker Deep Red, EC50; settings: DD2, Erythrocyte, 72 h
T2 construct: Dd2-Polδ parental hypermutator line, wild-type PfACS10, asexual blood stage
Description: To define the EC50 of parasites, ring-stage cultures at 0.2% parasitemia and 1% hematocrit were exposed for 72 h to a range of ten drug concentrations that were 2-fold serially diluted in duplicates along with DMSO controls. Parasite survival was assessed by flow cytometry on an iQue flow cytometer (Sartorius) using SYBR Green and MitoTracker Deep Red FM (Life Technologies) as nuclear stain and vital dyes respectively. Fig. 2 Mutations in PfACS10 can cause collateral sensitivity to distinct chemotypes. Mean EC50 ± SD values for strains containing mutations in PfACS10 selected in the Dd2-Polδ line (A268D, A268V, and F427L) and in 3D7 (M300I), are shown for MMV897615, MMV665924, and MMV019719. Assays were run in triplicate and at least repeated twice. ANOVA with Dunnett post-tests compared mutations in the Dd2-Polδ line, a p < 0.001, b p = 0.005. Two-sided unpaired Student’s t test compared 3D7 and ACS10M300I_C. c p = 0.0003, d p = 0.0000008, e p = 0.0016. Source data are provided as a Source Data file and in Supplementary Data 1. More recently, we performed selections in a hypermutator P. falciparum line (Dd2-Polδ[23]) with MMV897615, which yielded three novel mutations in PfACS10 that confer at least a seven-fold increase in resistance (ACS10A268D, ACS10A268V, and ACS10F427L, Fig. 2 and Supplementary Data 1 and 3). […]

CCc1cccc(CNC(=O)c2nc3cccc(COCc4ccc(C(=O)O)cc4)c3c(=O)[nH]2)c1 [19f, MMV897615]
EC50 ([1]; read-out: MMV897615 / EC50 [nM] (b)): 52.9 nM | EC50 ([2]; read-out: MMV897615 / EC50 [nM] (b) / EC50 [nM] (c)): 39.6 nM

CCC/C=C/C/C=C/C=C/C=N/NN=O [Triacsin C]
EC50 ([1]; read-out: Triacsin / EC50 [nM]): 549 nM

CCN(CC)Cc1cc(Nc2ccnc3cc(Cl)ccc23)ccc1O [amodiaquine]
EC50 ([1]; read-out: Amodiaquin (ADQ) / EC50 [nM]): 4.34 nM

O[C@@H](c1cc(C(F)(F)F)nc2c(C(F)(F)F)cccc12)[C@H]1CCCCN1 (racemic) [mefloquine]
EC50 ([1]; read-out: Mefloquine (MQ) / EC50 [nM]): 15.3 nM

COc1ccc(C(=O)C2CC2c2ccc(Cl)cc2)cc1 (stereo not drawn) [MMV665924]
EC50 ([1]; read-out: MMV665924 / EC50 [nM] (a)): 340 nM | EC50 ([2]; read-out: MMV665924 / EC50 [nM] (a) / EC50 [nM] (c)): 1360 nM

O=C1C(O)=C([C@H]2CC[C@H](c3ccc(Cl)cc3)CC2)C(=O)c2ccccc21 [atovaquone]
EC50 ([1]; read-out: Atovaquone (ATQ) / EC50 [nM]): 0.287 nM

C=C[C@H]1CN2CC[C@H]1C[C@H]2[C@H](O)c1ccnc2ccc(OC)cc12 [quinine]
EC50 ([1]; read-out: Quinine (QN) / EC50 [nM]): 37.3 nM
